Test results published in patent publication US6610744B2, “Methods of treatment with compounds having RARα receptor specific or selective activity” (Allergan, Inc., priority 1995, dated 2003).

What was measured:
RARΓ = molecular target: T1, RARΓ (Homo sapiens, UniProt P13631); test: Ligand binding assay, RARΓ
T1 construct: made in house; host or cells: Baculovirus expression (insect cell extract)
T1 sequence (P13631 1-454): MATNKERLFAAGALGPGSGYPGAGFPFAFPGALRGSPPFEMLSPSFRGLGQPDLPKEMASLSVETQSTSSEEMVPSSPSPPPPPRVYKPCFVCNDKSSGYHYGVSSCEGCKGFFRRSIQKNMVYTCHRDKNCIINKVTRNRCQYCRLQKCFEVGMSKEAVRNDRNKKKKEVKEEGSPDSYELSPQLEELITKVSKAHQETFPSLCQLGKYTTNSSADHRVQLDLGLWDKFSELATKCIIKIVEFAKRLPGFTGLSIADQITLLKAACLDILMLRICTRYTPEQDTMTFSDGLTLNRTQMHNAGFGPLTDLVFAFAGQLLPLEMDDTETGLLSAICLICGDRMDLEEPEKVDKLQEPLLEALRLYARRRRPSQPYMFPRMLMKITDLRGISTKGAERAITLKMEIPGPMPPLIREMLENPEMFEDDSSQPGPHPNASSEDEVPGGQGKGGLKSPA
Procedure: (§1) All binding assays were performed in a similar fashion. All six receptor types were derived from the expressed receptor type (RARα, β, Γ and RXRα, β, Γ) expressed in Baculovirus. Stock solutions of all compounds were prepared as 10 mM ethanol solutions and serial dilutions carried out into 1:1 DMSO; ethanol. Assay buffers consisted of the following for all six receptor assays: 8% glycerol, 120 mM KCl 8 mM Tris, 5 mM CHAPS 4 mM DTT and 0.24 mM PMSF, pH-7.4@ room temperature.
(§2) All receptor binding assays were performed in the same manner. The final assay volume was 250 μl and contained from 10-40 μg of extract protein depending on receptor being assayed along with 5 nM of [^3H] all-trans retinoic acid or 10 nM [^3H] 9-cis retinoic acid and varying concentrations of competing ligand at concentrations that ranged from 0-10^−5 M. The assays were formatted for a 96 well minitube system. Incubations were carried out at 4° C. until equilibrium was achieved. Non-specific binding was defined as that binding remaining in the presence of 1000 nM of the appropriate unlabeled retinoic acid isomer. At the end of the incubation period, 50 μl of 6.25% hydroxyapitite was added in the appropriate wash buffer. The wash buffer consisted of 100 mM KCl, 10 mM Tris and either 5 mM CHAPS (RXRα, β, Γ) or 0.5% Triton X-100 (RARα, β, Γ). The mixture was vortexed and incubated for 10 minutes at 4° C., centrifuged and the supernatant removed. The hydroxyapitite was washed three more times with the appropriate wash buffer. The receptor-ligand complex was adsorbed by the hydroxyapitite. The amount of receptor-ligand complex was determined by liquid scintillation counting of hydroxyapitite pellet.
(§3) After correcting for non-specific binding, IC50 values were determined. […] The IC50 value was determined graphically from a loglogit plot of the data. The […] were determined by application of the Cheng-Prussof equation to the IC50 values, the labeled ligand concentration and the Kd of the labeled ligand.
(§4) The results of ligand binding assay are expressed in Kd numbers. (See Cheng et al. Biochemical Pharmacology Vol. 22 pp 3099-3108, expressly incorporated herein by reference.)

RARα = molecular target: T2, RARα (Homo sapiens, UniProt P10276); test: Ligand binding assay, RARα
T2 construct: made in house; host or cells: Baculovirus expression (insect cell extract)
T2 sequence (P10276 1-462): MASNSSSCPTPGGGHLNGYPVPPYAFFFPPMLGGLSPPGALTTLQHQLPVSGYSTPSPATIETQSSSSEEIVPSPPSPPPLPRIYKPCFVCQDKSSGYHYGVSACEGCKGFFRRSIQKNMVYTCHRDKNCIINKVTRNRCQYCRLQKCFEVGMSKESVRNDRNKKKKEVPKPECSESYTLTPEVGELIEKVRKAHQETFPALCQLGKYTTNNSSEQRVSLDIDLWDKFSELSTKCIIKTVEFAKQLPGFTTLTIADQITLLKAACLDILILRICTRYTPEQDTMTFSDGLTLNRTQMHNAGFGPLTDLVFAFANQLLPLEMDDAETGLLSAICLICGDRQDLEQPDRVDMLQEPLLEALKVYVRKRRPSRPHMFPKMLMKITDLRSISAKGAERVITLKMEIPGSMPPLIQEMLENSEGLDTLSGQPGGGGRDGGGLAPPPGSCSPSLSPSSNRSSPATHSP
Procedure: as §1, §2, §3
The results of ligand binding assay are expressed in Kd numbers. […]

[1] = system: AML-193 cells (acute monocytic leukemia); test: AML 193 cell culture assay (3H-thymidine incorporation); assay type: cell-based, human; conditions: FIG. 2; low concentrations
Procedure: All trans-retinoic acid (t-RA) (Sigma Chemicals Co., St. Louis, Mo.) was stored at −70° C. Prior to each experiment the compound was dissolved in 100% ethanol at 1 mM and diluted in culture medium immediately before use. All experiments were performed in subdued light. Controls were assayed using the same concentration of ethanol as present in the experimental plates and this concentration of diluent had no effect in either assay.
AML-193 was established from the blast cells classified as M5 Acute Monocyte Leukemia. The growth factor, […] (GM-CSF) was required to establish this cell line and growth factors are necessary for its continuous proliferation in chemically defined medium. AML-193 cells were grown and maintained in Iscove's modified Dulbecco's medium supplemented with 10% fetal bovine serum, glutamine and antibiotics with 5 μg/ml insulin (Sigma Chemical Co.) and 2 ng/ml rh GM-CSF (R and D Systems). The cells were diluted to a concentration of 3×10^5/ml twice a week.
AML-193 cells were plated in a 96 well round bottom microtiter plate (Costar) at a density of 1,000 cells/well. To appropriate wells, retinoid test compounds were added at the final concentrations indicated for a final volume of 150 μl/well. The plates were incubated for 96 hours at 37° C. in a humidified atmosphere of 5% CO2 in air. Subsequently, 1 μCi of [5′-^3H]-thymidine (Amersham, U.K., 43 Ci/mmol specific activity) in 25 μl culture medium was added to each well and the cells were incubated for an additional 6 hours.
The cell lines were then processed as follows: the cellular DNA was precipitated with 10% trichloroacetic acid onto glass fiber filter mats using a SKATRON multi-well cell harvester (Skatron Instruments, Sterling Va.). Radioactivity incorporated into DNA, as a direct measurement of cell growth, was measured by liquid scintillation counting. The numbers represent the mean disintegrations per minute of incorporated thymidine from triplicate wells±SEM.

RARβ = molecular target: T3, RARβ (Homo sapiens, UniProt P10826); test: Ligand binding assay, RARβ
T3 construct: made in house; host or cells: Baculovirus expression (insect cell extract)
T3 sequence (P10826 1-455): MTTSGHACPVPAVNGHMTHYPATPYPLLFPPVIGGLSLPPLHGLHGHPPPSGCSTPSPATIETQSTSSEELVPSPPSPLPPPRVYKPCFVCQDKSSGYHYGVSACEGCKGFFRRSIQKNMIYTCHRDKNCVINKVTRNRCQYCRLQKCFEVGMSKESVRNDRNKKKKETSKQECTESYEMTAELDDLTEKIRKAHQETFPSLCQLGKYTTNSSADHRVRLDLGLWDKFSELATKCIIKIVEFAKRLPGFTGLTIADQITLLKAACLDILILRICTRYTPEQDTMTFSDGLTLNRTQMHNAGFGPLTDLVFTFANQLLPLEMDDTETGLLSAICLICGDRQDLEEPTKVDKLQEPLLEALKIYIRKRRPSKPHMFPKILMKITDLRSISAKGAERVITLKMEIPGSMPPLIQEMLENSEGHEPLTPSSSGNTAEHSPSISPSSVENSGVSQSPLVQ
Procedure: as §1, §2, §3, §4

RXRβ = molecular target: T4, RXRβ (Homo sapiens, UniProt P28702); test: Ligand binding assay, RXRβ
T4 construct: made in house; host or cells: Baculovirus expression (insect cell extract)
T4 sequence (P28702 1-533): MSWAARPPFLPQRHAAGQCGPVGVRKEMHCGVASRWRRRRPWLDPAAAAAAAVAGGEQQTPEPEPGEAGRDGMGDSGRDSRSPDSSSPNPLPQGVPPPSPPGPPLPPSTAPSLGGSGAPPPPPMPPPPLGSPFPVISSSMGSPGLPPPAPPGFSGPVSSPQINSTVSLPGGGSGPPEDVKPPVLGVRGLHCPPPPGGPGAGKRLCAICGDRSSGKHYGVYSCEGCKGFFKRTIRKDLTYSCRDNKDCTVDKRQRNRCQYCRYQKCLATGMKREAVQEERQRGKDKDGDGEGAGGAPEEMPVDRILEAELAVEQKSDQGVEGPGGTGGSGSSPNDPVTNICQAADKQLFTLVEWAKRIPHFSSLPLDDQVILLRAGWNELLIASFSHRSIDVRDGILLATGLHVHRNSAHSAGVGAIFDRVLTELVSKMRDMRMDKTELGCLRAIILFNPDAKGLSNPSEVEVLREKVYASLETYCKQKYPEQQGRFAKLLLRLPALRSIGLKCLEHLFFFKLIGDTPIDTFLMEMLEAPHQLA
Procedure: as §1, §2, §3, §4

RXRα = molecular target: T5, RXRα (Homo sapiens, UniProt P19793); test: Ligand binding assay, RXRα
T5 construct: made in house; host or cells: Baculovirus expression (insect cell extract)
T5 sequence (P19793 1-462): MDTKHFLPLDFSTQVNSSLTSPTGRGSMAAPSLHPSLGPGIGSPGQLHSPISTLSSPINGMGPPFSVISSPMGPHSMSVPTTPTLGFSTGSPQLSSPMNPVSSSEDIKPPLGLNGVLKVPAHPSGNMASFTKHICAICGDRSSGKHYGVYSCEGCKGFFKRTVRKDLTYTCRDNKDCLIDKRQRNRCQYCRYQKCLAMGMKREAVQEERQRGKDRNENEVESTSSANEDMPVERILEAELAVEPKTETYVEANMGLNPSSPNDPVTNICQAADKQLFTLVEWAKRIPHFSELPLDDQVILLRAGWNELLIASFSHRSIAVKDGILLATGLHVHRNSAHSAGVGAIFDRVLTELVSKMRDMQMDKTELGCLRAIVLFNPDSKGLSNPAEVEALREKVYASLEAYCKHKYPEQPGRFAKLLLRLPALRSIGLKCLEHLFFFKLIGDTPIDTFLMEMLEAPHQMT
Procedure: as §1, §2, §3, §4

RXRΓ = molecular target: T6, RXRΓ (Homo sapiens, UniProt P48443); test: Ligand binding assay, RXRΓ
T6 construct: made in house; host or cells: Baculovirus expression (insect cell extract)
T6 sequence (P48443 1-463): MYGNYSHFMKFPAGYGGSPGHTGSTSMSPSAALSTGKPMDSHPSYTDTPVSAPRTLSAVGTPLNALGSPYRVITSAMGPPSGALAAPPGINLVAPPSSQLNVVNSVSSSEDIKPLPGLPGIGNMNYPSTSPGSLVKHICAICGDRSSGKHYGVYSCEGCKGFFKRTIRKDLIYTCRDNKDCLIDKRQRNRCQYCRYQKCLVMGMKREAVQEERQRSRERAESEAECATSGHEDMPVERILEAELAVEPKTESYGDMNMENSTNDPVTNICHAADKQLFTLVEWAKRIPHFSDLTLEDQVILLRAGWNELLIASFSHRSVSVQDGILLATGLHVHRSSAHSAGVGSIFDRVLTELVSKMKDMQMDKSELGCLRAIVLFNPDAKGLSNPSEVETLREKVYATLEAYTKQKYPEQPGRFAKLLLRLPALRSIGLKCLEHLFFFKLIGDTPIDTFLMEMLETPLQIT
Procedure: as §1, §2, §3, §4

Compound	Kd (RARΓ)	Kd (RARα)	growth of AML 193 cells at low concentrations [1]	Kd (RARβ)	Kd (RXRβ)	Kd (RXRα)	Kd (RXRΓ)
CC(C)(C)C=C1CCC(C)(C)c2ccc(C#Cc3ccc(C(=O)O)cc3)cc21 [AGN 193459, 4-[(5,6-dihydro-5,5-dimethylnaphth-7(6H)-8-(1-2,2-dimethylpropylidene)naphth-2-yl)ethynyl]benzoic acid, reference compound]	7 nM	6 nM	do not inhibit but rather at these low concentrations even stimulate such cell growth	2 nM			
CC(C)(C)c1cc(C(=O)Nc2cc(F)c(C(=O)O)c(F)c2)cc(C(C)(C)C)n1 [Compound 50]	> 1000 nM			> 1000 nM	> 1000 nM	> 1000 nM	> 1000 nM
2-Fluoro-4-[(3′,5′-di-t-butyl)phenylcarbamoyl]benzoic acid [Compound 46]					> 1000 nM	> 1000 nM	> 1000 nM
CC(C)(C)c1cc(C(=O)Nc2cc(F)c(C(=O)O)c(F)c2)cc(C(C)(C)C)c1 [Compound 52]	> 1000 nM			> 1000 nM	> 1000 nM	> 1000 nM	> 1000 nM
CC1(C)CCC(C)(C)c2c1cc(C(=O)Nc1ccc(C(=O)O)c(F)c1)c(O)c2Br [Compound 30]		< 3 nM					
CC(C)(C)c1cc(C(=O)Nc2ccc(C(=O)O)c([N+](=O)[O-])c2)cc(C(C)(C)C)n1 [Compound 54]	> 1000 nM			> 1000 nM	> 1000 nM	> 1000 nM	> 1000 nM
CC1(C)CC=C(C#N)c2cc(C#Cc3ccc(C(=O)O)cc3)ccc21 [AGN 193090, 4-[(8-cyano-5,6-dihydro-5,5-dimethylnaphth-2-yl)ethynyl]benzoic acid, reference compound]	77 nM	109 nM	do not inhibit but rather at these low concentrations even stimulate such cell growth	34 nM			
